From the supplement of paper PMC10307832

Tests used:
Experiment in all cases: relative viability (nuclei count vs DMSO), 5 days (fraction); higher = more cells survive
R406 + Phenformin = compound: COc1cc(Nc2ncc(F)c(Nc3ccc4c(n3)NC(=O)C(C)(C)O4)n2)cc(OC)c1OC [R406] + N=C(N)NC(=N)NCCc1ccccc1 [Phenformin] (partner 250 µM)
Method in brief: (§1)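 Dosing by pin tool came one day after lung cancer cell lines were seeded in 1536-well plates, using either one drug or a fixed anchor-drug dose plus five library-drug doses (not always all listed) in √10 steps. After 5 days, nuclei were counted on 4× images. Relative viability is treated-well nuclei count divided by vehicle-well nuclei count, and values are medians of duplicate plates.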

Daporinad + Trametinib = compound: O=C(/C=C/c1cccnc1)NCCCCC1CCN(C(=O)c2ccccc2)CC1 [Daporinad] + CC(=O)Nc1cccc(-n2c(=O)n(C3CC3)c(=O)c3c(Nc4ccc(I)cc4F)n(C)c(=O)c(C)c32)c1 [Trametinib] (partner 0.02 µM)
Method in brief: as §1

Daporinad + Pictilisib = compound: O=C(/C=C/c1cccnc1)NCCCCC1CCN(C(=O)c2ccccc2)CC1 [Daporinad] + CS(=O)(=O)N1CCN(Cc2cc3nc(-c4cccc5[nH]ncc45)nc(N4CCOCC4)c3s2)CC1 [Pictilisib] (partner 1 µM)
Method in brief: as §1

Daporinad + Vorinostat = compound: O=C(/C=C/c1cccnc1)NCCCCC1CCN(C(=O)c2ccccc2)CC1 [Daporinad] + O=C(CCCCCCC(=O)Nc1ccccc1)NO [Vorinostat] (partner 1 µM)
Method in brief: as §1

Cell Line	relative viability (R406 + Phenformin; first compound 0.08 µM)	relative viability (R406 + Phenformin; first compound 0.253 µM)	relative viability (R406 + Phenformin; first compound 0.8 µM)	relative viability (R406 + Phenformin; first compound 2.53 µM)	relative viability (R406 + Phenformin; first compound 8 µM)	relative viability (Daporinad + Trametinib; first compound 0.0005 µM)	relative viability (Daporinad + Trametinib; first compound 0.001581 µM)	relative viability (Daporinad + Trametinib; first compound 0.005 µM)	relative viability (Daporinad + Trametinib; first compound 0.01581 µM)	relative viability (Daporinad + Pictilisib; first compound 0.0005 µM)	relative viability (Daporinad + Pictilisib; first compound 0.001581 µM)	relative viability (Daporinad + Pictilisib; first compound 0.005 µM)	relative viability (Daporinad + Pictilisib; first compound 0.01581 µM)	relative viability (Daporinad + Vorinostat; first compound 0.0005 µM)	relative viability (Daporinad + Vorinostat; first compound 0.001581 µM)	relative viability (Daporinad + Vorinostat; first compound 0.005 µM)	relative viability (Daporinad + Vorinostat; first compound 0.01581 µM)
NCI-H647	0.423	0.561	0.78	0.432	0.12	0.456	0.572	0.603	0.672	0.403	0.556	0.489	0.53	0.527	0.483	0.534	0.49
A-427	0.382	0.335	0.316	0.171	0.134	0.695	0.825	0.778	0.708	0.559	0.79	0.684	0.716	0.838	0.886	0.793	0.659
EMC-BAC-2	0.516	0.587	0.616	0.388	0.198	0.868	0.935	0.8	0.433	0.628	0.567	0.485	0.319	0.319	0.567	0.421	0.301
NCI-H460	0.552	0.682	0.609	0.105	0.102	0.0943	0.147	0.187	0.206	0.332	0.368	0.423	0.535	0.743	0.719	0.687	0.643
LCLC-103H	0.327	0.345	0.419	0.317	0.314	0.738	0.69	0.701	0.757	0.693	0.649	0.619	0.606	0.747	0.835	0.864	0.999
HCC-827	0.436	0.401	0.439	0.265	0.215	0.498	0.508	0.553	0.552	1.12	0.994	1.23	1.01	0.929	0.871	0.913	0.906
NCI-H1355	0.474	0.472	0.472	0.197	0.28	0.409	0.465	0.298	0.557	0.417	0.549	0.628	0.576	0.652	0.738	0.615	0.532
NCI-H1734	0.374	0.483	0.407	0.257	0.202	0.725	0.764	0.724	0.491	0.454	0.529	0.557	0.431	0.837	0.897	0.729	0.301
HARA	0.386	0.508	0.548	0.377	0.324	0.833	0.761	0.627	0.403	0.329	0.568	0.436	0.371	0.39	0.527	0.518	0.663
HCC-15	0.467	0.606	0.595	0.445	0.234	0.339	0.429	0.39	0.418	0.664	0.8	0.79	0.856	0.782	0.959	0.889	0.911
LCLC-97TM1	0.351	0.407	0.379	0.251	0.351	0.188	0.158	0.189	0.177	0.2	0.185	0.284	0.26	0.547	0.686	0.867	1.1
SK-LU-1	0.597	0.608	0.628	0.175	0.0854	0.48	0.522	0.55	0.615	0.482	0.601	0.637	0.595	0.851	0.85	0.919	0.788
NCI-H1651	0.455	0.377	0.465	0.252	0.134	0.854	0.825	0.823	0.757	0.642	0.683	0.629	0.601	0.613	0.594	0.695	0.529
NCI-H1793	0.312	0.477	0.546	0.192	0.156	0.362	0.453	0.525	0.389	0.221	0.354	0.38	0.32	0.542	0.508	0.809	0.969
NCI-H2023	0.374	0.444	0.464	0.312	0.163	0.605	0.523	0.539	0.621	0.252	0.3	0.245	0.278	0.848	0.667	0.715	0.631
LC-2-ad	0.592	0.561	0.579	0.384	0.25	0.907	0.983	0.863	0.914	0.389	0.514	0.64	0.675	0.677	0.769	0.693	0.63
NCI-H1703	–	–	–	–	–	–	–	–	–	0.236	0.283	0.259	0.265	–	–	–	–
NCI-H1437	0.301	0.31	0.251	0.29	0.201	0.444	0.544	0.551	0.518	0.418	0.527	0.433	0.553	0.759	0.831	0.893	0.718
SW 1573	0.371	0.43	0.469	0.263	0.151	0.499	0.45	0.447	0.28	0.524	0.552	0.524	0.36	0.715	1.12	0.535	0.305
H3255	0.366	–	0.352	0.369	0.311	0.557	0.637	0.645	0.71	0.46	0.488	0.507	0.469	0.668	0.591	0.775	0.979
Calu-6	–	–	–	–	–	–	–	–	–	0.917	0.907	0.81	0.421	–	–	–	–
NCI-H1792	–	0.377	0.246	0.0941	0.13	0.412	0.471	0.421	0.453	0.212	0.317	0.25	0.377	–	–	–	–
NCI-H2170	0.405	0.414	0.44	0.316	0.372	0.789	0.943	0.84	0.948	0.315	0.331	0.301	0.407	0.769	0.81	0.827	0.822

Cell Line	relative viability (R406 + Phenformin; first compound 0.08 µM)	relative viability (R406 + Phenformin; first compound 0.253 µM)	relative viability (R406 + Phenformin; first compound 0.8 µM)	relative viability (R406 + Phenformin; first compound 2.53 µM)	relative viability (R406 + Phenformin; first compound 8 µM)	relative viability (Daporinad + Trametinib; first compound 0.0005 µM)	relative viability (Daporinad + Trametinib; first compound 0.001581 µM)	relative viability (Daporinad + Trametinib; first compound 0.005 µM)	relative viability (Daporinad + Trametinib; first compound 0.01581 µM)	relative viability (Daporinad + Pictilisib; first compound 0.0005 µM)	relative viability (Daporinad + Pictilisib; first compound 0.001581 µM)	relative viability (Daporinad + Pictilisib; first compound 0.005 µM)	relative viability (Daporinad + Pictilisib; first compound 0.01581 µM)	relative viability (Daporinad + Vorinostat; first compound 0.0005 µM)	relative viability (Daporinad + Vorinostat; first compound 0.001581 µM)	relative viability (Daporinad + Vorinostat; first compound 0.005 µM)	relative viability (Daporinad + Vorinostat; first compound 0.01581 µM)
NCI-H1650	0.438	0.497	0.508	0.154	0.146	0.565	0.628	0.635	0.572	0.503	0.727	0.715	0.733	0.518	0.746	0.547	0.322
NCI-H2087	0.487	0.569	0.556	–	0.406	0.18	0.213	0.263	0.22	0.877	1.1	0.951	0.907	0.89	0.645	0.576	0.792
HCC-366	0.627	0.622	0.721	0.521	0.254	0.332	–	0.376	0.409	0.14	0.167	0.152	0.201	0.363	–	0.389	0.321
NCI-H838	0.569	0.634	0.727	0.188	0.132	0.496	0.637	0.542	0.265	0.507	0.559	0.592	0.53	0.763	0.814	0.49	0.418
LU99A	0.789	0.99	0.95	0.556	0.759	0.511	0.562	0.598	0.613	0.312	0.383	0.392	0.306	0.499	0.594	0.545	0.571
NCI-H650	0.416	0.498	0.463	0.295	0.337	1.05	1.14	1.01	1.27	0.937	0.962	1.02	1.05	0.465	0.488	0.511	0.399
HCC-78	0.544	0.751	0.842	0.611	0.392	0.68	0.821	0.71	1.1	0.217	0.145	0.166	0.259	0.368	0.414	0.345	0.5
NCI-H1755	0.602	0.651	0.621	0.374	0.429	0.751	0.761	0.779	0.768	0.442	0.44	0.452	0.457	0.76	0.934	0.807	0.751
NCI-H3122	0.396	0.39	0.396	0.365	0.369	0.165	0.227	0.213	0.217	0.446	0.617	0.677	0.692	0.938	1.14	1.03	0.898
EBC-1	–	–	–	–	–	–	–	–	–	0.335	0.43	0.37	0.469	–	–	–	–
NCI-H2342	0.66	0.623	0.649	0.525	0.535	1.04	0.82	0.782	0.844	–	–	–	–	0.806	0.791	0.695	0.815
NCI-H358	0.298	0.3	0.309	0.151	0.115	0.135	0.152	0.15	0.18	0.266	0.405	0.338	0.438	0.688	0.75	0.801	0.558
PC-3 [JPC-3]	0.466	0.515	0.526	0.413	0.377	0.667	0.714	0.758	0.842	0.703	0.987	0.824	0.659	0.604	0.818	1.06	0.921
NCI-H1563	0.662	0.664	0.682	0.511	0.445	–	–	–	–	0.639	0.642	0.605	0.701	–	–	–	–
NCI-H1623	0.577	0.624	0.611	0.585	0.554	–	–	–	–	–	–	–	–	–	–	–	–
NCI-H1299	–	–	–	–	–	–	–	–	–	0.736	0.809	0.839	0.739	–	–	–	–
NCI-H522	0.595	0.595	0.619	0.553	0.583	0.906	0.753	0.67	0.835	–	–	–	–	0.995	1.13	0.946	0.544
A549	0.142	0.21	0.122	0.155	0.0767	–	–	–	–	0.548	0.529	0.61	0.469	–	–	–	–
NCI-H1648	–	–	–	–	–	0.469	0.418	0.417	0.447	–	–	–	–	0.439	0.333	0.424	0.41
SW 900	0.53	0.662	0.792	0.189	0.215	0.668	–	1.03	0.663	–	–	–	–	0.461	–	0.86	0.3
IA-LM	–	–	–	–	–	–	–	–	–	0.357	0.321	0.308	0.307	0.855	1.25	0.986	1.09
ABC-1	0.227	0.225	0.236	0.197	0.201	–	–	–	–	0.652	0.934	0.734	0.743	0.809	1.51	1.46	0.9
